# Measurements taken from PubChem BioAssay (NCI).
#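 Exposure lasted 48 hours, with cells grown in 96-well plates and compounds tested at five concentrations. TGI: concentration producing complete growth inhibition.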
# How the values were obtained:
# Experiment in all cases: NCI anticancer screen, dose series, 48 h
# HOP-62 NSCLC = tested on: HOP-62 NSCLC
# SK-OV-3 ovarian = tested on: SK-OV-3 ovarian
# KM12 colon = tested on: KM12 colon
# K-562 leukemia = tested on: K-562 leukemia
# HT29 colon = tested on: HT29 colon
# MALME-3M melanoma = tested on: MALME-3M melanoma
# 786-0 renal = tested on: 786-0 renal
# UACC-257 melanoma = tested on: UACC-257 melanoma
# CAKI-1 renal = tested on: CAKI-1 renal
# IGROV1 ovarian = tested on: IGROV1 ovarian
# LOX IMVI melanoma = tested on: LOX IMVI melanoma
# NCI-H23 lung = tested on: NCI-H23 lung
# SK-MEL-2 melanoma = tested on: SK-MEL-2 melanoma
# EKVX NSCLC = tested on: EKVX NSCLC
# OVCAR-3 ovarian = tested on: OVCAR-3 ovarian
# UO-31 renal = tested on: UO-31 renal
# UACC-62 melanoma = tested on: UACC-62 melanoma
# NCI-H522 lung = tested on: NCI-H522 lung
# PC-3 prostate = tested on: PC-3 prostate
# MDA-MB-435 = tested on: MDA-MB-435
# SW-620 colon = tested on: SW-620 colon
# HCT-116 colon = tested on: HCT-116 colon
# DU-145 prostate = tested on: DU-145 prostate
# MOLT-4 leukemia = tested on: MOLT-4 leukemia
# NCI-H460 lung = tested on: NCI-H460 lung
# MCF7 breast = tested on: MCF7 breast
# NCI/ADR-RES ovarian = tested on: NCI/ADR-RES ovarian
# RPMI-8226 leukemia = tested on: RPMI-8226 leukemia
# SK-MEL-5 melanoma = tested on: SK-MEL-5 melanoma
# SN12C renal = tested on: SN12C renal
# SF-539 CNS = tested on: SF-539 CNS
# SF-268 CNS = tested on: SF-268 CNS
# HOP-92 NSCLC = tested on: HOP-92 NSCLC
# MDA-N = tested on: MDA-N
# TK-10 renal = tested on: TK-10 renal
# HS 578T breast = tested on: HS 578T breast
# OVCAR-4 ovarian = tested on: OVCAR-4 ovarian
# CCRF-CEM leukemia = tested on: CCRF-CEM leukemia
# OVCAR-8 ovarian = tested on: OVCAR-8 ovarian
# COLO 205 colon = tested on: COLO 205 colon
# M14 melanoma = tested on: M14 melanoma
# HL-60(TB) leukemia = tested on: HL-60(TB) leukemia
# A498 renal = tested on: A498 renal
# SNB-75 CNS = tested on: SNB-75 CNS
# NCI-H226 lung = tested on: NCI-H226 lung
# SNB-19 CNS = tested on: SNB-19 CNS
# HCT-15 colon = tested on: HCT-15 colon
# RXF 393 renal = tested on: RXF 393 renal
# U251 CNS = tested on: U251 CNS
# T-47D breast = tested on: T-47D breast
# SF-295 CNS = tested on: SF-295 CNS
# OVCAR-5 ovarian = tested on: OVCAR-5 ovarian
# BT-549 breast = tested on: BT-549 breast
# SR leukemia = tested on: SR leukemia
# A549 NSCLC = tested on: A549 NSCLC
# ACHN renal = tested on: ACHN renal
# HCC-2998 colon = tested on: HCC-2998 colon
# SK-MEL-28 melanoma = tested on: SK-MEL-28 melanoma
# MDA-MB-231 breast = tested on: MDA-MB-231 breast
smiles,measurement,setting,value
COc1cc(C(=O)NNC(=O)c2cc(Br)ccc2NC(=O)c2cccs2)cc(OC)c1OC,TGI,HOP-62 NSCLC,42.2 µM
same,TGI,SK-OV-3 ovarian,36.5 µM
same,TGI,KM12 colon,> 100 µM
same,TGI,K-562 leukemia,11.9 µM
same,TGI,HT29 colon,41.1 µM
same,TGI,MALME-3M melanoma,86.1 µM
same,TGI,786-0 renal,45.4 µM
same,TGI,UACC-257 melanoma,56.9 µM
same,TGI,CAKI-1 renal,> 100 µM
same,TGI,IGROV1 ovarian,> 100 µM
same,TGI,LOX IMVI melanoma,37.1 µM
same,TGI,NCI-H23 lung,57.1 µM
same,TGI,SK-MEL-2 melanoma,44.9 µM
same,TGI,EKVX NSCLC,27 µM
same,TGI,OVCAR-3 ovarian,> 100 µM
same,TGI,UO-31 renal,50.2 µM
same,TGI,UACC-62 melanoma,34.1 µM
same,TGI,NCI-H522 lung,53.3 µM
same,TGI,PC-3 prostate,> 100 µM
same,TGI,MDA-MB-435,50 µM
same,TGI,SW-620 colon,> 100 µM
same,TGI,HCT-116 colon,51.5 µM
same,TGI,DU-145 prostate,> 100 µM
same,TGI,MOLT-4 leukemia,> 100 µM
same,TGI,NCI-H460 lung,73.6 µM
same,TGI,MCF7 breast,52.1 µM
same,TGI,NCI/ADR-RES ovarian,62 µM
same,TGI,RPMI-8226 leukemia,43.5 µM
same,TGI,SK-MEL-5 melanoma,26.7 µM
same,TGI,SN12C renal,60.3 µM
same,TGI,SF-539 CNS,30 µM
same,TGI,SF-268 CNS,29.3 µM
same,TGI,HOP-92 NSCLC,46.9 µM
same,TGI,MDA-N,74.9 µM
same,TGI,TK-10 renal,> 100 µM
same,TGI,HS 578T breast,62.1 µM
same,TGI,OVCAR-4 ovarian,51.4 µM
same,TGI,CCRF-CEM leukemia,> 100 µM
same,TGI,OVCAR-8 ovarian,59.9 µM
same,TGI,COLO 205 colon,25.5 µM
same,TGI,M14 melanoma,59.8 µM
same,TGI,HL-60(TB) leukemia,93.6 µM
same,TGI,A498 renal,55 µM
same,TGI,SNB-75 CNS,24.6 µM
same,TGI,NCI-H226 lung,36.5 µM
same,TGI,SNB-19 CNS,74.3 µM
same,TGI,HCT-15 colon,62.3 µM
same,TGI,RXF 393 renal,29.1 µM
same,TGI,U251 CNS,44.6 µM
same,TGI,T-47D breast,> 100 µM
same,TGI,SF-295 CNS,48.9 µM
same,TGI,OVCAR-5 ovarian,45.3 µM
same,TGI,BT-549 breast,> 100 µM
same,TGI,SR leukemia,> 100 µM
same,TGI,A549 NSCLC,61.3 µM
same,TGI,ACHN renal,43.6 µM
N=c1c2ccccc2nc2oc3cc([N+](=O)[O-])ccc3n12,TGI,HOP-62 NSCLC,45.4 µM
same,TGI,SK-OV-3 ovarian,37.1 µM
same,TGI,KM12 colon,> 100 µM
same,TGI,K-562 leukemia,> 100 µM
same,TGI,HT29 colon,> 100 µM
same,TGI,MALME-3M melanoma,> 100 µM
same,TGI,786-0 renal,66.3 µM
same,TGI,UACC-257 melanoma,> 100 µM
same,TGI,CAKI-1 renal,> 100 µM
same,TGI,IGROV1 ovarian,> 100 µM
same,TGI,LOX IMVI melanoma,> 100 µM
same,TGI,NCI-H23 lung,49.5 µM
same,TGI,SK-MEL-2 melanoma,> 100 µM
same,TGI,HCC-2998 colon,> 100 µM
same,TGI,EKVX NSCLC,89 µM
same,TGI,OVCAR-3 ovarian,70.8 µM
same,TGI,UO-31 renal,32.3 µM
same,TGI,UACC-62 melanoma,> 100 µM
same,TGI,NCI-H522 lung,> 100 µM
same,TGI,PC-3 prostate,> 100 µM
same,TGI,MDA-MB-435,> 100 µM
same,TGI,SW-620 colon,> 100 µM
same,TGI,HCT-116 colon,> 100 µM
same,TGI,MOLT-4 leukemia,> 100 µM
same,TGI,NCI-H460 lung,> 100 µM
same,TGI,MCF7 breast,> 100 µM
same,TGI,NCI/ADR-RES ovarian,74 µM
same,TGI,RPMI-8226 leukemia,> 100 µM
same,TGI,SK-MEL-5 melanoma,> 100 µM
same,TGI,SN12C renal,> 100 µM
same,TGI,SF-539 CNS,65.4 µM
same,TGI,SF-268 CNS,85.2 µM
same,TGI,SK-MEL-28 melanoma,> 100 µM
same,TGI,MDA-N,> 100 µM
same,TGI,TK-10 renal,36.6 µM
same,TGI,HS 578T breast,50.7 µM
same,TGI,OVCAR-4 ovarian,> 100 µM
same,TGI,CCRF-CEM leukemia,> 100 µM
same,TGI,OVCAR-8 ovarian,51.2 µM
same,TGI,COLO 205 colon,> 100 µM
same,TGI,M14 melanoma,> 100 µM
same,TGI,SNB-75 CNS,24.9 µM
same,TGI,NCI-H226 lung,30.3 µM
same,TGI,SNB-19 CNS,> 100 µM
same,TGI,HCT-15 colon,> 100 µM
same,TGI,RXF 393 renal,32.5 µM
same,TGI,U251 CNS,29.6 µM
same,TGI,T-47D breast,20.3 µM
same,TGI,SF-295 CNS,54.4 µM
same,TGI,OVCAR-5 ovarian,> 100 µM
same,TGI,BT-549 breast,91.6 µM
same,TGI,SR leukemia,> 100 µM
same,TGI,MDA-MB-231 breast,60.5 µM
same,TGI,A549 NSCLC,> 100 µM
same,TGI,ACHN renal,57.7 µM
